The experiment relates to AP-1 induced transcriptional activity. Description: Cellular Transrepressional Assay (AP-1 luciferase reporter in A549 cell, PMA activated). To be noted: pAP-1-Luc; for Emax / AP-1 Max % inh (Cellular Transrepression Assay): maximum inhibition, PMA; for Emax: read-out: AP-1 Max % inh (Cellular Transrepression Assay); for EC50: 10 ng/ml PMA, 7 hours, read-out: AP-1 EC50, nM (Cellular Transrepression Assay). The format is cell-based. The protocol:
Cellular Transrepressional Assay
To measure the ability of test molecules to inhibit AP-1 induced transcriptional activity we utilized an A549 cell which was stably transfected with a plasmid containing 7×AP-1 DNA binding sites (pAP-1-Luc plasmid, Stratagene Co. La Jolla, Calif.) followed by the gene for luciferase. Cells were activated with 10 ng/ml of phorbol myristic acid (PMA) plus or minus test molecules for 7 hours. After 7 hours a luciferase reagent was added to measure luciferase enzymatic activity in the cell. After a 10 minute incubation of luciferase reagent with cells, luminescence was measured in a TopCount luminescence counter. Repression of AP-1 activity was calculated as the percentage decrease in the signal induced by PMA alone. Test molecules were analyzed in the concentration range from 0.1 nM to 40 μM. EC50s were determined by using standard curve fitting methods such as Excel fit (Microsoft Co.). An EC50 is the test molecule concentration at which there is a 50% repression of the maximal inhibition of transcription, i.e. a 50% reduction of AP-1 activity.
(In general: A reporter such as luciferase makes a cellular process visible.)

Like-named read-outs stand apart in the source and are kept apart here.

For `CCN(C)C(=O)c1ccc(-c2ccc(C(c3ccccc3)C(C)(C)C(=O)Nc3nncs3)s2)cc1` (stereo not drawn) [Example 50, 4-(5-(2,2-dimethyl-3-oxo-1-phenyl-3-(1,3,4-thiadiazol-2-ylamino)propyl)-2-thienyl)-N-ethyl-N-methylbenzamide], for the setting “Homo sapiens, A549, 7 h”, the Emax was determined as 39.6% and the EC50 turned out to be 13.2 nM.

As to `CC(C)(C(=O)Nc1nncs1)C(c1ccccc1)c1ccc(-c2ccc(C(=O)N3CCOCC3)c(Cl)c2)s1` (stereo not drawn) [Example 52, 3-(5-(3-chloro-4-(4-morpholinylcarbonyl)phenyl)-2-thienyl)-2,2-dimethyl-3-phenyl-N-1,3,4-thiadiazol-2-ylpropanamide], under “Homo sapiens, A549, 7 h”, the Emax stood at 38.5% and the EC50 was 12.1 nM.

Consider `CN(C)C(=O)c1ccc(-c2ccc(C(c3ccccc3)C(C)(C)C(=O)Nc3nccs3)s2)cc1` (stereo not drawn) [Example 54, 4-(5-(2,2-Dimethyl-3-oxo-1-phenyl-3-(1,3-thiazol-2-ylamino)propyl)-2-thienyl)-N,N-dimethylbenzamide], for which, under “Homo sapiens, A549, 7 h”, the Emax was found to be 62.4% and the EC50 turned out to be 9.45 nM.

Regarding `CC(C)(C(=O)Nc1nncs1)[C@@H](c1cccc(F)c1)c1ccc(-c2ccc(C(=O)N3CCOCC3)cc2)s1` [Example 64, (3R)-3-(3-Fluorophenyl)-2,2-dimethyl-3-(5-(4-(4-morpholinylcarbonyl)phenyl)-2-thienyl)-N-1,3,4-thiadiazol-2-ylpropanamide], where the note is “Homo sapiens, A549, 7 h”, the Emax came to 53.8% and the EC50 was found to be 3.04 nM.

On to `CN(C)C(=O)c1ccc(-c2ccc([C@H](c3cccc(F)c3)C(C)(C)C(=O)Nc3nncs3)s2)cc1` [Example 65, 4-(5-((1R)-1-(3-fluorophenyl)-2,2-dimethyl-3-oxo-3-(1,3,4-thiadiazol-2-ylamino)propyl)-2-thienyl)-N,N-dimethylbenzamide], for which, where the note is “Homo sapiens, A549, 7 h”, the Emax was found to be 49.6% and the EC50 came to 7 nM.

Consider `CN(C)C(=O)c1ccc(-c2ccc([C@H](c3cccc(F)c3)C(C)(C)C(=O)Nc3nncs3)s2)cc1Cl` [Example 66, 2-chloro-4-(5-((1R)-1-(3-fluorophenyl)-2,2-dimethyl-3-oxo-3-(1,3,4-thiadiazol-2-ylamino)propyl)-2-thienyl)-N,N-dimethylbenzamide], for which, for the setting “Homo sapiens, A549, 7 h”, the Emax amounted to 50.4% and the EC50 was 5.16 nM.

For `CC(C)(C(=O)Nc1nncs1)[C@@H](c1cccc(F)c1)c1ccc(-c2ccc(C(=O)N3CCOCC3)c(Cl)c2)s1` [Example 67, (3R)-3-(5-(3-chloro-4-(4-morpholinylcarbonyl)phenyl)-2-thienyl)-3-(3-fluorophenyl)-2,2-dimethyl-N-1,3,4-thiadiazol-2-ylpropanamide], where the note is “Homo sapiens, A549, 7 h”, the Emax was 51.2% and the EC50 worked out at 12.8 nM.

On to `CCN(C)C(=O)c1ccc(-c2ccc([C@H](c3cccc(F)c3)C(C)(C)C(=O)Nc3nncs3)s2)cc1` [Example 68, N-ethyl-4-(5-((1R)-1-(3-fluorophenyl)-2,2-dimethyl-3-oxo-3-(1,3,4-thiadiazol-2-ylamino)propyl)-2-thienyl)-N-methylbenzamide], for which, for the setting “Homo sapiens, A549, 7 h”, the Emax came to 49.4% and the EC50 worked out at 7.31 nM.

Take `CCN(CC)C(=O)c1ccc(-c2ccc([C@H](c3cccc(F)c3)C(C)(C)C(=O)Nc3nncs3)s2)cc1Cl` [Example 70, 2-chloro-N,N-diethyl-4-(5-((1R)-1-(3-fluorophenyl)-2,2-dimethyl-3-oxo-3-(1,3,4-thiadiazol-2-ylamino)propyl)-2-thienyl)benzamide]: for the setting “Homo sapiens, A549, 7 h”, the Emax stood at 23% and the EC50 is 833 nM.

Regarding `CC(C)(C(=O)Nc1nncs1)[C@@H](c1cccc(F)c1)c1ccc(-c2ccc(C(=O)N3CCC(F)(F)C3)cc2)s1` [Example 79, (3R)-3-(5-(4-((3,3-difluoro-1-pyrrolidinyl)carbonyl)phenyl)-2-thienyl)-3-(3-fluorophenyl)-2,2-dimethyl-N-1,3,4-thiadiazol-2-ylpropanamide], under “Homo sapiens, A549, 7 h”, the Emax came to 42.6% and the EC50 amounted to 30.3 nM.

In the case of `CCN(C)C(=O)c1ccc(-c2ccc([C@H](c3cccc(F)c3)C(C)(C)C(=O)Nc3nncs3)s2)cc1F` [Example 80, N-ethyl-2-fluoro-4-(5-((1R)-1-(3-fluorophenyl)-2,2-dimethyl-3-oxo-3-(1,3,4-thiadiazol-2-ylamino)propyl)-2-thienyl)-N-methylbenzamide], under “Homo sapiens, A549, 7 h”, the Emax is 33.6% and the EC50 worked out at 34.7 nM.

Consider `CC(C)(C(=O)Nc1nncs1)[C@@H](c1cccc(F)c1)c1ccc(-c2ccc(C(=O)N3CCOCC3)c(F)c2)s1` [Example 83, (3R)-3-(5-(3-Fluoro-4-(4-morpholinylcarbonyl)phenyl)-2-thienyl)-3-(3-fluorophenyl)-2,2-dimethyl-N-1,3,4-thiadiazol-2-ylpropanamide], for which, under “Homo sapiens, A549, 7 h”, the Emax was 32.7% and the EC50 was 16.6 nM.

Turning to `CN(C)C(=O)c1ccc(-c2ccc(C(c3ccccc3)C(C)(C)C(=O)Nc3nncs3)s2)cc1Cl` (stereo not drawn) [Example 86, 2-chloro-4-(5-(2,2-dimethyl-3-oxo-1-phenyl-3-(1,3,4-thiadiazol-2-ylamino)propyl)-2-thienyl)-N,N-dimethylbenzamide], the “AP-1 Max % inh (Cellular Transrepression Assay)” value was 36.20 % inh and the EC50 was 53.9 nM.

Take `CN(C)C(=O)c1ccc(-c2ccc(C(c3ccccc3)C(C)(C)C(=O)Nc3nncs3)s2)cc1` (stereo not drawn) [Example 87, 4-(5-(2,2-dimethyl-3-oxo-1-phenyl-3-(1,3,4-thiadiazol-2-ylamino)propyl)-2-thienyl)-N,N-dimethylbenzamide]: under “Homo sapiens, A549, 7 h”, the Emax came out at 41.1% and the EC50 was found to be 8.49 nM.

`CCN(C)C(=O)c1ccc(-c2ccc(C(c3ccccc3)C(C)(C)C(=O)Nc3nncs3)s2)cc1` (stereo not drawn) [Example 88, 4-(5-(2,2-dimethyl-3-oxo-1-phenyl-3-(1,3,4-thiadiazol-2-ylamino)propyl)-2-thienyl)-N-ethyl-N-methylbenzamide]: the “AP-1 Max % inh (Cellular Transrepression Assay)” value came out at 43.56 % inh and the EC50 worked out at 15.7 nM.

Turning to `CC(C)(C(=O)Nc1nncs1)C(c1cc(F)cc(F)c1)c1ccc(-c2ccc(C(=O)N3CCOCC3)cc2)s1` (stereo not drawn) [Example 89, 3-(3,5-difluorophenyl)-2,2-dimethyl-3-(5-(4-(4-morpholinylcarbonyl)phenyl)-2-thienyl)-N-1,3,4-thiadiazol-2-ylpropanamide], where the note is “Homo sapiens, A549, 7 h”, the Emax came out at 36.7% and the EC50 amounted to 2.41 nM.

As to `CN(C)C(=O)c1ccc(-c2ccc(C(c3cc(F)cc(F)c3)C(C)(C)C(=O)Nc3nncs3)s2)cc1` (stereo not drawn) [Example 90, 4-(5-(1-(3,5-difluorophenyl)-2,2-dimethyl-3-oxo-3-(1,3,4-thiadiazol-2-ylamino)propyl)-2-thienyl)-N,N-dimethylbenzamide], under “Homo sapiens, A549, 7 h”, the Emax was found to be 32.7% and the EC50 was 20.6 nM.

As for `C[C@@H](C(=O)Nc1nncs1)[C@@H](c1cccc(F)c1)c1ccc(Br)s1` [Example 96, (2R,3S)-3-(5-bromo-2-thienyl)-3-(3-fluorophenyl)-2-methyl-N-1,3,4-thiadiazol-2-ylpropanamide], where the note is “Homo sapiens, A549, 7 h”, the Emax was 27.4% and the EC50 was determined as 71.1 nM.

Take `CCN(C)C(=O)c1ccc(-c2ccc([C@@H](c3cccc(F)c3)[C@@H](C)C(=O)Nc3nncs3)s2)cc1` [Example 107, N-ethyl-4-(5-((1R,2R)-1-(3-fluorophenyl)-2-methyl-3-oxo-3-(1,3,4-thiadiazol-2-ylamino)propyl)-2-thienyl)-N-methylbenzamide]: under “Homo sapiens, A549, 7 h”, the Emax amounted to 52.5% and the half-maximal effective concentration (EC50) was 15.9 nM.

With `C[C@@H](C(=O)Nc1nncs1)[C@H](c1cccc(F)c1)c1ccc(-c2ccc(C(=O)N3CCOCC3)cc2)s1` [Example 109, (2R,3R)-3-(3-fluorophenyl)-2-methyl-3-(5-(4-(4-morpholinylcarbonyl)phenyl)-2-thienyl)-N-1,3,4-thiadiazol-2-ylpropanamide], for the setting “Homo sapiens, A549, 7 h”, the Emax was determined as 57.5% and the EC50 was 8.39 nM.

For the compound `C[C@@H](C(=O)Nc1nncs1)[C@H](c1cccc(F)c1)c1ccc(-c2ccc(C(=O)N(C)C)c(Cl)c2)s1` [Example 110, 2-Chloro-4-(5-((1R,2R)-1-(3-fluorophenyl)-2-methyl-3-oxo-3-(1,3,4-thiadiazol-2-ylamino)propyl)-2-thienyl)-N,N-dimethylbenzamide], under “Homo sapiens, A549, 7 h”, the Emax is 47% and the EC50 is 24.6 nM.

Regarding `C[C@@H](C(=O)Nc1nncs1)[C@H](c1cccc(F)c1)c1ccc(-c2ccc(C(=O)N3CCOCC3)c(Cl)c2)s1` [Example 111, (2R,3R)-3-(5-(3-chloro-4-(4-morpholinylcarbonyl)phenyl)-2-thienyl)-3-(3-fluorophenyl)-2-methyl-N-1,3,4-thiadiazol-2-ylpropanamide], where the note is “Homo sapiens, A549, 7 h”, the Emax amounted to 53.3% and the EC50 was found to be 21.2 nM.

In the case of `C[C@@H](C(=O)Nc1nncs1)[C@H](c1cccc(F)c1)c1ccc(-c2ccc(C(=O)N(C)C)c(F)c2)s1` [Example 112, 2-fluoro-4-(5-((1R,2R)-1-(3-fluorophenyl)-2-methyl-3-oxo-3-(1,3,4-thiadiazol-2-ylamino)propyl)-2-thienyl)-N,N-dimethylbenzamide], where the note is “Homo sapiens, A549, 7 h”, the Emax is 54% and the EC50 was found to be 18.5 nM.

Take `CC(C)Oc1ccc(-c2ccc([C@@H](c3cccc(F)c3)[C@@H](C)C(=O)Nc3nncs3)s2)cc1` [Example 113, (2R,3R)-3-(3-fluorophenyl)-3-(5-(4-isopropoxyphenyl)-2-thienyl)-2-methyl-N-1,3,4-thiadiazol-2-ylpropanamide]: for the setting “Homo sapiens, A549, 7 h”, the Emax is 37.8% and the EC50 turned out to be 17.9 nM.

As a reminder, the EC50 is the midpoint of the concentration-response curve.

Source of the values: patent publication US8222247B2, “Modulators of glucocorticoid receptor, AP-1, and/or NF-kappabeta activity and use thereof” (Bristol-Myers Squibb Company, priority 2006, dated 2012).
